Here are results for 8 molecules from US7141676B1, “Water soluble multi-biotin-containing compounds” (University of Washington, priority 1996, dated 2006).

Each structure is given as a SMILES string.

Data set [1] can be described thus: Water solubility (dissolve in water, stand about 24 hours, centrifuge, HPLC of aqueous layer). It is filed as physicochemical. Conditions: pH 7, water, thermodynamic from solid, neutral pH and ambient temperature. The source says:
The solubility of biotin moieties in aqueous media is enhanced according to the present invention by attaching a water-soluble linker moiety, typically through the carboxylate group of the biotin. Water-soluble linker moieties, L, according to the present invention, compromise any linker moiety that, when conjugated or coupled (e.g., covalently bonded) to a biotin moiety and the cross-linker, C, increases the water solubility of the biotin-containing compound. […] Dissolving the compound in water, stirring the solution, and allowing the solution to stand at room temperature for about 24 hours determines solubility. The solution then is centrifuged and the resultant aqueous layer analyzed using high performance liquid chromatography (“HPLC”). The HPLC analysis is conducted with a gradient using acetonitrile or methanol and water as the solvent mixture on a reversed-phase column.

The conditions of data set [2]: neutral pH and ambient temperature; cited from earlier work.
The target in another data set is T1, streptavidin (Streptomyces avidinii, UniProt P22629).
T1 construct: purchased Pierce
T1 sequence (P22629 25-183, species assumed): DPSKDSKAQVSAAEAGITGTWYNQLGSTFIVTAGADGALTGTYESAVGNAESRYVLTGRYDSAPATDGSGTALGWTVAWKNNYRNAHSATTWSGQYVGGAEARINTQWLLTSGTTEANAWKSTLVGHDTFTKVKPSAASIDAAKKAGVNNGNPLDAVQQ
The experiment in a line: Streptavidin cross-linking with biotin compounds on streptavidin coated polystyrene plate using 125I labeled streptavidin (Example 7). Particulars: 100 pmol biotin compound, 25 pmol 125I streptavidin per well, up to 4 alternating additions. It is filed as binding. The source says: This experiment was designed to test streptavidin cross-linking with biotin monomer, biotin dimers comprising water-soluble linkers, and biotin moiety trimers comprising water-soluble linkers. Each of the biotin dimers and trimers used experimentally was water-soluble. […] The biotin dimers used herein are structures 28, 29, and 30. The trimers used herein are structures 23 (page 26), 24 (page 26), and 31. The biotin monomer used herein is the N-[13-(p-iodobenzamido)4,7,10-trioxatridacanyl]biotinamide.
A Reacti-Bind Streptavidin Coated Polystyrene Strip Place (Pierce) was washed with 100 mM PBS prior to use. To lane one (12-wells) was added 100 μL PBS. To lanes 2–7 were added 100 pmol of biotin dimer or biotin trimer to be tested in 100 μL PBS. Lane 8 was treated in the same manner with 100 pmol of biotin monomer. The plate then was incubated at 37° C. with shaking for 10 minutes. All the wells then were emptied and rinsed with 100 μL PBS. The PBS was removed and 25 pmol of ^125I labeled streptavidin (specific activity of 1 μCi/ug) in 100 μL PBS was added to each well. […]
The first 9 wells in each lane were then filled with 100 μL PBS and the remaining 3 wells in each lane were filled with 100 μL of their respective dimer or trimer. […] The amount of activity remaining in each well was determined as a percentage of the highest initial streptavidin binding.

As for `O=C(CCCCC1SCC2NC(=O)NC21)NCCOCCONC(=O)CCCCC1SCC2NC(=O)NC21` (centres unmarked) [structure 28], in data set [1], the solubility (as a rule, the concentration that dissolves in the medium under given conditions) was greater than 200 µg/mL. `O=C(O)CCCC[C@@H]1SC[C@@H]2NC(=O)N[C@@H]21` [biotin]: in data set [2], the solubility in water entry was “approximately 0.2 mg/mL”. In data set [1], `O=C(CCCCC1SCC2NC(=O)NC21)NCCCOCCOCCOCCCNC(=O)CCCCC1SCC2NC(=O)NC21` (centres unmarked) [structure 29] came in with a solubility greater than 200 µg/mL.

In turn, `O=C(CCCCC1SCC2NC(=O)NC21)NCCCOCCOCCOCCNC(=O)c1cc(C(=O)NCCOCCOCCNC(=O)CCCCC2SCC3NC(=O)NC32)cc(C(=O)NCCOCCOCCNC(=O)CCCCC2SCC3NC(=O)NC32)c1` (centres unmarked) [structure 24] yielded a solubility in data set [1] greater than 200 µg/mL.

In the case of `O=C(CCCCC1SCC2NC(=O)NC21)NCCCOCCOCCOCCCNC(=O)c1cc(C(=O)NCCCOCCOCCOCCCNC(=O)CCCCC2SCC3NC(=O)NC32)cc(C(=O)NCCCOCCOCCOCCCNC(=O)CCCCC2SCC3NC(=O)NC32)c1` (centres unmarked) [structure 23], the solubility in data set [1] was greater than 200 µg/mL. For the molecule `O=C(CCCC[C@@H]1SC[C@@H]2NC(=O)N[C@@H]21)NCCCOCCOCCOCCCNC(=O)c1ccc(I)cc1` [biotin monomer, N-[13-(p-iodobenzamido)4,7,10-trioxatridacanyl]biotinamide], on streptavidin, the “streptavidin binding as a function of sequential biotin compound additions (FIG. 1)” value is given as “Neither the biotin monomer nor any of the biotin dimers tested demonstrated appreciable increases in streptavidin binding”. The molecule `CC(CC(=O)NCCCOCCOCCOCCCNC(=O)CC(C)NC(=O)CCCCC1SCC2NC(=O)NC21)NC(=O)CCCCC1SCC2NC(=O)NC21` (centres unmarked) [structure 30] registered a solubility in data set [1] greater than 200 µg/mL. Still for that read-out and setting: the result for `CC(CC(=O)NCCCOCCOCCOCCCNC(=O)c1cc(C(=O)NCCCOCCOCCOCCCNC(=O)CC(C)NC(=O)CCCCC2SCC3NC(=O)NC32)cc(C(=O)NCCCOCCOCCOCCCNC(=O)CC(C)NC(=O)CCCCC2SCC3NC(=O)NC32)c1)NC(=O)CCCCC1SCC2NC(=O)NC21` (centres unmarked) [structure 31] reads greater than 200 µg/mL.
